# Assay results reported in patent US11612583B2, “Disease modifying methods for treating neurodegenerative diseases using nootropic agents” (priority 2018, dated 2023).
# “Also recorded” adds a separate entry of the source.
# Assays:
# [1] = tested on: primary cortical neurons treated with rotenone; assay: Oxygen consumption rates (XF24e Extracellular Flux Analyzer) in rotenone-treated primary cortical neurons; format: cell-based, mouse
# Description: Rotenone (1.26 mM stock, Sigma, Cat #R8875) was freshly prepared in water prior to each use. Stocks of rotenone were maintained in the dark at −20° C. for up to 6 months. Rotenone was used at 65 μM for neuroblastoma cells and at 65 nM for primary cortical neurons for 4-6 hours to induce oxidative and autophagic stress.
# Forskolin (Coleus forskohlii, >98% HPLC, Sigma Aldrich) was prepared in DMSO as 5 mg/ml stocks (stable for up to 6 months if kept in the dark and stored in −20° C. until ready to use). On the day of the experiment, the forskolin aliquot was thawed and cells were treated once with forskolin at a concentration of 1 to up to 10 μM of forskolin in complete media for treating primary cortical neurons or for intraperitoneal administration of PINK1 knockout mice or PINK1 knockout rats.
# Rotenone-treated primary neurons were then exposed to 250 μM dibutyryl cyclic AMP (dbt-cAMP) or with the parental or water-soluble form (NKH477) of Forskolin (6.5 μM-8.5 μM, 24 hrs). The basal oxygen consumption rates (OCRs), a proxy for mitochondrial function, were analyzed by using an XF24^e Extracellular Flux Analyzer (Agilent Technologies). The maximal oxygen consumption rates (OCRs), a proxy for maximal buffering capacity of mitochondrial function, were also analyzed by using an XF24^e Extracellular Flux Analyzer in primary cortical neurons treated with 1 μM FCCP, an ionophore that acts as a mitochondrial uncoupler.
# PINK1-KO rats = assay: Baseline oxygen consumption rates in midbrain slices of PINK1-KO rats; format: in vivo, rat; details: intraperitoneal Forskolin 1.6 mg/kg with or without Noopept 0.05 μg/kg; FIG. 12
# Description: Wild-type (PINK1+/+) or PINK1 knockout (PINK1−/−) rats were treated with intraperitoneal injections of DMSO control or of Forskolin (1.6 mg/kg body weight) once every 2 days for two doses followed by co-administration with Noopept (0.05 μg/kg) for three more doses (once every two days) for up to a total treatment time of 10 days. At the end of each treatment, a battery of motor tests were performed in vehicle-treated or WT and PINK1-KO rats treated with compounds to analyze for muscle strength in hind legs by using a grip strength analyzer. In addition, muscle coordination and balance were assessed by subjecting the rats to cross a 1-meter, tapered beam balance (2 cm width) for up to three trials per animal. Upon completing the behavioral tests, the rats were then transcardially perfused with phosphate buffered saline, and the brains were extracted, midbrain slices were generated by using a vibratome (brain slicer) at room temperature and maintained in artificial cerebral spinal fluid. The oxygen consumption rates were then measured by using an XF24^e Metabolic Analyzer to measure energy production in the brain (oxidative phosphorylation) as described in Example 1 but with the following modifications. […] The brain slices were analyzed for baseline respiration for five cycles with each cycle consisting of 3 min. of mixing, 3 min. of waiting and 2 min. of measuring OCRs.
smiles,measurement,setting,value
C=C[C@@]1(C)CC(=O)[C@]2(O)[C@@]3(C)[C@@H](O)CCC(C)(C)[C@@H]3[C@H](O)[C@H](OC(C)=O)[C@@]2(C)O1 [Forskolin],spare respiratory capacity (Maximal OCRs-Baseline OCRs),"[1]; after rotenone 65 nM 24 hours, 6.5 μM-8.5 μM, 24 hrs, 1 μM FCCP, FIG. 2",completely restored; also recorded: significantly restored
same,baseline mitochondrial respiration (basal OCRs),"[1]; after rotenone 65 nM 24 hours, Forskolin or NKH477 6.5 μM-8.5 μM, 24 hrs, FIG. 1",partially or completely restored; also recorded: significantly restored
same,protection against rotenone-mediated neurodegeneration,[1]; concentrations of Forskolin greater than 12.5 μM,did not confer significant protection
same,concentration of maximal effects on protection against loss of neuronal metabolism (oxidative phosphorylation and glycolysis),"[1]; rotenone-treated primary neurons, bimodal",about 10 μM
same,basal respiration / oxidative phosphorylation in the midbrain (baseline OCRs),PINK1-KO rats,sufficient to reverse the loss in oxidative phosphorylation; also recorded: significantly restored basal respiration
